Test results taken from patent publication US20250084095A1, “Aminopyrimidine Derivatives as Cyclin-Dependent Kinase Inhibitors” (Accutar Biotechnology Inc., priority 2023, published 2025).

What was measured:
22RV1 cells = assay: Cell growth inhibition of 22RV1 cells (CellTiter-Glo); format: cell-based; conditions: Homo sapiens, 22Rv1, 120 h, 5 days, CellTiter-Glo, read-out: 22RV1 Cell Growh GI50
Method: For cell growth assay, 22RV1 (ATCC, CRL-2505) cells were seeded in 96-well plates at 1000 cells/well in 90 μl of RPMI1640 growth medium containing 20% FBS and 1% Penicillin Streptomycin, and then incubated at 37° C. overnight. The following day, the test compound was administered to the cells by using 1000× compound stock solution prepared in DMSO at various concentrations. 1000× compound stock solution was first diluted in culturing medium to 10×, then 10 uL compound medium was added to each well in the cell plates. After administration of the compound, the cells were then incubated at 37° C. for 5 days. Upon completion, the plates were equilibrated at room temperature for approximately 10 min. 100 μl of CellTiter-Glo® Reagent (Promega) was added to each well. The plates were then incubated at room temperature for 10 min and luminescence was recorded by EnSpire plate reader (PerkinElmer).
22RV1 cells were obtained from American Type Culture Collection (ATCC, CRL-2505). 22RV1 cells were seeded in 96-well plates at 1000 cells/well in 90 μL of RPMI1640 growth medium containing 10% FBS and 1% Penicillin Streptomycin, and then incubated at 37° C. overnight. The following day, the test compound was administered to the cells by using 1000× compound stock solution prepared in DMSO at various concentrations. […], then 10 uL compound medium was added to each well in the cell plates. After administration of the compound, the cells were then incubated at […] for 5 days. Upon completion, the plates were equilibrated at room temperature for approximately 10 minutes. 100 μL of CellTiter-Glo® Reagent (Promega) was added to each well. The plates were then incubated at room temperature for 10 minutes and luminescence was recorded by EnSpire plate reader (PerkinElmer).

[1] = tested on: Phospho-Rb (Ser807/811) in MCF7 cells; assay: Phospho-Rb expression inhibition in MCF7 cells quantified by in cell Western; format: cell-based, human; conditions: Homo sapiens, MCF7, 24 h, 24 hours, in cell Western, read-out: MCF7 pRb IC50
Method: MCF7 cells were obtained from American Type Culture Collection (ATCC, HTB-22). MCF7 cells were plated in 96-well plates (VWR #10062-900, or Coming #3904) in 90 μL culture medium at a density of 20,000 cells/well in the DMEM growth medium containing 10%/FBS and 1% Penicillin Streptomycin, and then incubated at 37° C. overnight. The following day, the test compound was administered to the cells by using 1000× compound stock solution prepared in DMSO at various concentrations. 1000× compound stock solution was first diluted in culturing medium to 10×, then 10 μL compound medium was added to each well in the cell plates. After administration of the compound, the cells were then incubated at 37° C. for 24 h. Upon completion, the cells were washed with PBS briefly. 150 μL/well of 4% formaldehyde was added and the plates were incubated at room temperature for 20 min. The cells were washed with PBS briefly, and permeabilized with 150 µL/well of ice cold 100% methanol for 10 min. The cells were washed with PBS briefly and blocked with 100 µL/well LI-COR blocking buffer for 1 h at room temperature with gentle shaking. The cells were incubated overnight at 4° C. with 50 μL primary antibody rabbit anti-Phospho-Rb (Ser807/811) (1: 500, Cell Signaling, #8516) and anti-Rb (1:200, Santa Cruz, sc-73598) diluted in Intercept Blocking Buffer (LI-COR, #927-60001) containing 0.1% Tween 20. The next day, the cells were washed with 200 μL PBS containing 0.1% Tween 20, 5×5 mins at room temperature with gentle shaking, and incubated with 50 μL secondary antibody, IRDye® 800CW Goat anti-Rabbit IgG (1:1000, LI-COR, #926-32211) and FRDye® 680RD Goat anti-Mouse IgG (1:1000, LI-COR, #926-68070), in LI-COR […] blocking buffer with 0.2% Tween 20 for 1 h at room temperature with gentle shaking. The cells were washed with 200 μL PBS containing 0.1% Tween 20, 5×5 min at room temperature with gentle shaking. The cells were washed with PBS for 5 mins. 100 μL fresh PBS was added to each well and the plates were imaged on a LI-COR Odyssey CLX plate reader.
MCF7 cells were obtained from American Type Culture Collection (ATCC, HTB-22). SW1573-CDK6 KO and SW1573-CDK4 KO cells were generated by the CRISPR-Cas9 technology. All cells were plated in 96-well plates (VWR #10062-900, or Corning #3904) in 90 uL culture medium at a density of 20,000 cells/well in the respective growth medium containing 10% FBS and 1% Penicillin Streptomycin, and then incubated at 37° C. overnight. The following day, the test compound was administered to the cells by using 1000× compound stock solution prepared in DMSO at various concentrations. 1000× compound stock solution was first diluted in culturing medium to 10×, then 10 uL compound medium was added to each well in the cell plates. After administration of the compound, the cells were then incubated at 37° C. for 24 hours. Upon completion, the cells were washed with PBS briefly. 150 uL/well of 4% formaldehyde was added and the plates were incubated at room temperature for 20 mins. The cells were washed with PBS briefly, and permeabilized with 150 uL/well of ice cold 100% methanol for 10 mins. The cells were washed with PBS briefly and blocked with 100 uL/well LI-COR blocking buffer for 1 hr at room temperature with gentle shaking. The cells were incubated overnight at 4° C. with 50 uL primary antibody rabbit anti-Phospho-Rb (Ser807/811) (1: 500, Cell Signaling, #8516) and anti-Rb (1:200, Santa Cruz, sc-73598) diluted in Intercept Blocking Buffer (LI-COR, #927-60001) containing 0.1% Tween 20. The next day, the cells were washed with 200 uL PBS containing 0.1% Tween 20, 5×5 mins at room temperature with gentle shaking, and incubated with 50 uL secondary antibody, IRDye® 800CW Goat anti-Rabbit IgG (1:1000, LI-COR, #926-32211) and IRDye®680RD Goat anti-Mouse IgG (1:1000, LI-COR, #926-68070), in LI-COR blocking buffer with 0.2% Tween 20 for 1 hr at room temperature with gentle shaking. […]

Row | SMILES | GI50 (22RV1 cells) | IC50 [1]
1 | CC(C)n1c(C(C)(C)O)nc2c(F)cc(-c3nc(N[C@@H]4C[C@@H]5CO[C@@H](O5)[C@H]4O)ncc3Cl)cc21 [Compound 137, (1R,3R,4S,5S)-3-((5-chloro-4-(4-fluoro-2-(2-hydroxypropan-2-yl)-1-isopropyl-1H-benzo[d]imidazol-6-yl)pyrimidin-2-yl)amino)-6,8-dioxabicyclo[3.2.1]octan-4-ol] | > 3000 nM | 150 to 1000 nM
2 | CC(C)n1c(-c2ccccc2)nc2c(F)cc(-c3nc(N[C@@H]4C[C@H]5CO[C@H](O5)[C@H]4O)ncc3Cl)cc21 [Compound 163, (1S,3R,4S,5R)-3-((5-chloro-4-(4-fluoro-1-isopropyl-2-phenyl-1H-benzo[d]imidazol-6-yl)pyrimidin-2-yl)amino)-6,8-dioxabicyclo[3.2.1]octan-4-ol] | 120 to 450 nM | 40 to 150 nM
3 | CC(C)n1c(C2(F)COC2)nc2c(F)cc(-c3nc(N[C@@H]4C[C@H]5CO[C@H](O5)[C@H]4O)ncc3Cl)cc21 [Compound 170, (1S,3R,4S,5R)-3-((5-chloro-4-(4-fluoro-2-(3-fluorooxetan-3-yl)-1-isopropyl-1H-benzo[d]imidazol-6-yl)pyrimidin-2-yl)amino)-6,8-dioxabicyclo[3.2.1]octan-4-ol] | 450 to 3000 nM | 40 to 150 nM
4 | CC(C)n1c(C2(O)COC2)nc2c(F)cc(-c3nc(N[C@@H]4C[C@H]5CO[C@H](O5)[C@H]4O)ncc3Cl)cc21 [Compound 172, (1S,3R,4S,5R)-3-((5-chloro-4-(4-fluoro-2-(3-hydroxyoxetan-3-yl)-1-isopropyl-1H-benzo[d]imidazol-6-yl)pyrimidin-2-yl)amino)-6,8-dioxabicyclo[3.2.1]octan-4-ol] | 120 to 450 nM | 40 to 150 nM
5 | CC(C)N1CCOc2c(F)cc(-c3nc(N[C@@H]4C[C@H]5CO[C@H](O5)[C@H]4O)ncc3Cl)cc21 [Compound 173, (1S,3R,4S,5R)-3-((5-chloro-4-(8-fluoro-4-isopropyl-3,4-dihydro-2H-benzo[b][1,4]oxazin-6-yl)pyrimidin-2-yl)amino)-6,8-dioxabicyclo[3.2.1]octan-4-ol] | 120 to 450 nM | 40 to 150 nM
6 | C[C@H]1COc2c(-c3nc(N[C@@H]4C[C@H]5CO[C@H](O5)[C@H]4O)ncc3Cl)cc(F)c3c2N1CCO3 [Compound 174, (1S,3R,4S,5R)-3-((5-chloro-4-((S)-9-fluoro-4-methyl-2,3,4,5-tetrahydro-1,6-dioxa-3a-azaphenalen-7-yl)pyrimidin-2-yl)amino)-6,8-dioxabicyclo[3.2.1]octan-4-ol] | 120 to 450 nM | 40 to 150 nM
7 | CC(C)n1c(C(F)(F)CO)nc2c(F)cc(-c3nc(N[C@@H]4C[C@H]5CO[C@H](O5)[C@H]4O)ncc3Cl)cc21 [Compound 176, (1S,3R,4S,5R)-3-((5-chloro-4-(2-(1,1-difluoro-2-hydroxyethyl)-4-fluoro-1-isopropyl-1H-benzo[d]imidazol-6-yl)pyrimidin-2-yl)amino)-6,8-dioxabicyclo[3.2.1]octan-4-ol] | 450 to 3000 nM | 150 to 1000 nM
8 | CC(C)(O)c1nc2c(F)cc(-c3nc(N[C@@H]4C[C@H]5CO[C@H](O5)[C@H]4O)ncc3Cl)cc2n1C12CC(C1)C2 [Compound 181, (1S,3R,4S,5R)-3-((4-(1-(bicyclo[1.1.1]pentan-1-yl)-4-fluoro-2-(2-hydroxypropan-2-yl)-1H-benzo[d]imidazol-6-yl)-5-chloropyrimidin-2-yl)amino)-6,8-dioxabicyclo[3.2.1]octan-4-ol] | 120 to 450 nM | 150 to 1000 nM

Results, then the molecule that gave them:

Row | GI50 (22RV1 cells) | IC50 [1] | SMILES
9 | 120 to 450 nM | 40 to 150 nM | CC(C)n1c(C(C)(C)O)nc2c(F)cc(-c3nc(N[C@@H]4C[C@H]5OC[C@H](O5)[C@H]4O)ncc3Cl)cc21 [Compound 72, (1S,2S,3R,5S)-3-((5-chloro-4-(4-fluoro-2-(2-hydroxypropan-2-yl)-1-isopropyl-1H-benzo[d]imidazol-6-yl)pyrimidin-2-yl)amino)-6,8-dioxabicyclo[3.2.1]octan-2-ol]
10 | 120 to 450 nM | 40 to 150 nM | CC(C)n1c(N2CC[C@@H](F)C2)nc2c(F)cc(-c3nc(N[C@@H]4C[C@H]5CO[C@H](O5)[C@H]4O)ncc3Cl)cc21 [Compound 151, (1S,3R,4S,5R)-3-((5-chloro-4-(4-fluoro-2-((R)-3-fluoropyrrolidin-1-yl)-1-isopropyl-1H-benzo[d]imidazol-6-yl)pyrimidin-2-yl)amino)-6,8-dioxabicyclo[3.2.1]octan-4-ol]
11 | ≤ 120 nM | 40 to 150 nM | CC(C)(O)c1nc2c(F)cc(-c3nc(N[C@@H]4C[C@H]5CO[C@H](O5)[C@H]4O)ncc3Cl)cc2n1C1(CF)CC1 [Compound 167, (1S,3R,4S,5R)-3-((5-chloro-4-(4-fluoro-1-(1-(fluoromethyl)cyclopropyl)-2-(2-hydroxypropan-2-yl)-1H-benzo[d]imidazol-6-yl)pyrimidin-2-yl)amino)-6,8-dioxabicyclo[3.2.1]octan-4-ol]
12 | ≤ 120 nM | 40 to 150 nM | CC(C)n1c(C2(C(F)F)CC2)nc2c(F)cc(-c3nc(N[C@@H]4C[C@H]5CO[C@H](O5)[C@H]4O)ncc3Cl)cc21 [Compound 168, (1S,3R,4S,5R)-3-((5-chloro-4-(2-(1-(difluoromethyl)cyclopropyl)-4-fluoro-1-isopropyl-1H-benzo[d]imidazol-6-yl)pyrimidin-2-yl)amino)-6,8-dioxabicyclo[3.2.1]octan-4-ol]
13 | ≤ 120 nM | 40 to 150 nM | CC(C)n1c(C(C)(C)C(F)F)nc2c(F)cc(-c3nc(N[C@@H]4C[C@H]5CO[C@H](O5)[C@H]4O)ncc3Cl)cc21 [Compound 169, (1S,3R,4S,5R)-3-((5-chloro-4-(2-(1,1-difluoro-2-methylpropan-2-yl)-4-fluoro-1-isopropyl-1H-benzo[d]imidazol-6-yl)pyrimidin-2-yl)amino)-6,8-dioxabicyclo[3.2.1]octan-4-ol]
